Data from article PMC3130141 (Archives of Drug Information, 2011).

How the values were obtained:
[1] = test system: human tumor xenograft models including a primary bladder tumor model and the rituximab-insensitive non-Hodgkin's lymphoma model, DoHH2T53; conditions: cited from earlier work
[2] = test system: Japanese patients with advanced solid tumors; test: Laboratory assessments; format: in vivo, human; conditions: for Blood sodium decreased, patients with grade ≥3 abnormal laboratory finding: cut-off <130 mmol/L; for Lymphocyte count decreased, patients with grade ≥3 abnormal laboratory finding / Lymphopenia, patients with grade ≥3 abnormal laboratory finding: cut-off <0.5 × 10^9/L; for Neutropenia, patients with grade ≥3 abnormal laboratory finding: cut-off <1.0 × 10^9/L; for Leukopenia, patients with grade ≥3 abnormal laboratory finding: cut-off <2.0 × 10^9/L; for Hemoglobin decreased, patients with grade ≥3 abnormal laboratory finding: cut-off <8.0 g/dL; for Thrombocytopenia, patients with grade ≥3 abnormal laboratory finding: cut-off <50.0 × 10^9/L; for Weight decreased, patients with grade ≥3 abnormal vital sign: cut-off ≥20% from baseline
[3] = Cycle 1, Day 8, Total, all doses (N = 18)

Cc1ccc(C(=O)N(CCCN)C(c2nc3snc(C)c3c(=O)n2Cc2ccccc2)C(C)C)cc1 (stereo not shown) [AZD4877]
Activity in human tumor xenograft models [1]: activity was observed
Any grade ≥3 finding/vital sign, patients with grade ≥3 abnormal laboratory findings/vital signs ([2]; 10 mg (N = 3)): 1 (33) N (%)
Blood sodium decreased, patients with grade ≥3 abnormal laboratory finding ([2]; 10 mg (N = 3)): 0 N (%)
Lymphocyte count decreased, patients with grade ≥3 abnormal laboratory finding ([2]; 10 mg (N = 3)): 0 N (%)
Lymphopenia, patients with grade ≥3 abnormal laboratory finding ([2]; 10 mg (N = 3)): 0 N (%)
Neutropenia, patients with grade ≥3 abnormal laboratory finding ([2]; 10 mg (N = 3)): 1 (33) N (%)
Leukopenia, patients with grade ≥3 abnormal laboratory finding ([2]; 10 mg (N = 3)): 0 N (%)
Hemoglobin decreased, patients with grade ≥3 abnormal laboratory finding ([2]; 10 mg (N = 3)): 0 N (%)
Thrombocytopenia, patients with grade ≥3 abnormal laboratory finding ([2]; 10 mg (N = 3)): 0 N (%)
Weight decreased, patients with grade ≥3 abnormal vital sign ([2]; 10 mg (N = 3)): 0 N (%)
Any grade ≥3 finding/vital sign, patients with grade ≥3 abnormal laboratory findings/vital signs ([2]; 15 mg (N = 3)): 1 (33) N (%)
Blood sodium decreased, patients with grade ≥3 abnormal laboratory finding ([2]; 15 mg (N = 3)): 0 N (%)
Lymphocyte count decreased, patients with grade ≥3 abnormal laboratory finding ([2]; 15 mg (N = 3)): 0 N (%)
Lymphopenia, patients with grade ≥3 abnormal laboratory finding ([2]; 15 mg (N = 3)): 0 N (%)
Neutropenia, patients with grade ≥3 abnormal laboratory finding ([2]; 15 mg (N = 3)): 1 (33) N (%)
Leukopenia, patients with grade ≥3 abnormal laboratory finding ([2]; 15 mg (N = 3)): 0 N (%)
Hemoglobin decreased, patients with grade ≥3 abnormal laboratory finding ([2]; 15 mg (N = 3)): 0 N (%)
Thrombocytopenia, patients with grade ≥3 abnormal laboratory finding ([2]; 15 mg (N = 3)): 0 N (%)
Weight decreased, patients with grade ≥3 abnormal vital sign ([2]; 15 mg (N = 3)): 0 N (%)
Any grade ≥3 finding/vital sign, patients with grade ≥3 abnormal laboratory findings/vital signs ([2]; 20 mg (N = 6)): 4 (67) N (%)
Blood sodium decreased, patients with grade ≥3 abnormal laboratory finding ([2]; 20 mg (N = 6)): 1 (17) N (%)
Lymphocyte count decreased, patients with grade ≥3 abnormal laboratory finding ([2]; 20 mg (N = 6)): 0 N (%)
Lymphopenia, patients with grade ≥3 abnormal laboratory finding ([2]; 20 mg (N = 6)): 0 N (%)
Neutropenia, patients with grade ≥3 abnormal laboratory finding ([2]; 20 mg (N = 6)): 3 (50) N (%)
Leukopenia, patients with grade ≥3 abnormal laboratory finding ([2]; 20 mg (N = 6)): 3 (50) N (%)
Hemoglobin decreased, patients with grade ≥3 abnormal laboratory finding ([2]; 20 mg (N = 6)): 0 N (%)
Thrombocytopenia, patients with grade ≥3 abnormal laboratory finding ([2]; 20 mg (N = 6)): 0 N (%)
Weight decreased, patients with grade ≥3 abnormal vital sign ([2]; 20 mg (N = 6)): 1 (17) N (%)
Any grade ≥3 finding/vital sign, patients with grade ≥3 abnormal laboratory findings/vital signs ([2]; 25 mg (N = 6)): 6 (100) N (%)
Blood sodium decreased, patients with grade ≥3 abnormal laboratory finding ([2]; 25 mg (N = 6)): 0 N (%)
Lymphocyte count decreased, patients with grade ≥3 abnormal laboratory finding ([2]; 25 mg (N = 6)): 1 (17) N (%)
Lymphopenia, patients with grade ≥3 abnormal laboratory finding ([2]; 25 mg (N = 6)): 1 (17) N (%)
Neutropenia, patients with grade ≥3 abnormal laboratory finding ([2]; 25 mg (N = 6)): 5 (83) N (%)
Leukopenia, patients with grade ≥3 abnormal laboratory finding ([2]; 25 mg (N = 6)): 5 (83) N (%)
Hemoglobin decreased, patients with grade ≥3 abnormal laboratory finding ([2]; 25 mg (N = 6)): 1 (17) N (%)
Thrombocytopenia, patients with grade ≥3 abnormal laboratory finding ([2]; 25 mg (N = 6)): 1 (17) N (%)
Weight decreased, patients with grade ≥3 abnormal vital sign ([2]; 25 mg (N = 6)): 0 N (%)
Patients experiencing grade ≥3 neutropenia ([2]; 25 mg dose cohort): five of six
Platelet count, mean (SD) ([2]; Cycle 1, Day 8, 10 mg (N = 3)): 227.3 (36.7) 10^3/µL
Total ANC (absolute neutrophil count), mean (SD) ([2]; Cycle 1, Day 8, 10 mg (N = 3)): 2.00 (0.37) 10^3/µL
White blood cell count, mean (SD) ([2]; Cycle 1, Day 8, 10 mg (N = 3)): 4.13 (0.63) 10^3/µL
Platelet count, mean (SD) ([2]; Cycle 1, Day 8, 15 mg (N = 3)): 229.0 (35.9) 10^3/µL
Total ANC (absolute neutrophil count), mean (SD) ([2]; Cycle 1, Day 8, 15 mg (N = 3)): 3.23 (1.26) 10^3/µL
White blood cell count, mean (SD) ([2]; Cycle 1, Day 8, 15 mg (N = 3)): 5.50 (1.48) 10^3/µL
Platelet count, mean (SD) ([2]; Cycle 1, Day 8, 20 mg (N = 6)): 245.7 (45.5) 10^3/µL
Total ANC (absolute neutrophil count), mean (SD) ([2]; Cycle 1, Day 8, 20 mg (N = 6)): 1.81 (0.99) 10^3/µL
White blood cell count, mean (SD) ([2]; Cycle 1, Day 8, 20 mg (N = 6)): 2.97 (1.06) 10^3/µL
Platelet count, mean (SD) ([2]; Cycle 1, Day 8, 25 mg (N = 6)): 246.5 (99.7) 10^3/µL
Total ANC (absolute neutrophil count), mean (SD) ([2]; Cycle 1, Day 8, 25 mg (N = 6)): 2.00 (0.97) 10^3/µL
White blood cell count, mean (SD) ([2]; Cycle 1, Day 8, 25 mg (N = 6)): 3.01 (0.99) 10^3/µL
Platelet count, mean (SD) [2, 3]: 240.1 (62.6) 10^3/µL
Total ANC (absolute neutrophil count), mean (SD) [2, 3]: 2.14 (1.01) 10^3/µL
White blood cell count, mean (SD) [2, 3]: 3.60 (1.37) 10^3/µL
Platelet count, mean (SD) ([2]; Cycle 1, Day 15, 10 mg (N = 3)): 203.3 (46.5) 10^3/µL
Total ANC (absolute neutrophil count), mean (SD) ([2]; Cycle 1, Day 15, 10 mg (N = 3)): 1.25 (0.27) 10^3/µL
White blood cell count, mean (SD) ([2]; Cycle 1, Day 15, 10 mg (N = 3)): 3.59 (0.69) 10^3/µL
Platelet count, mean (SD) ([2]; Cycle 1, Day 15, 15 mg (N = 3)): 217.0 (6.1) 10^3/µL
Total ANC (absolute neutrophil count), mean (SD) ([2]; Cycle 1, Day 15, 15 mg (N = 3)): 2.33 (1.62) 10^3/µL
White blood cell count, mean (SD) ([2]; Cycle 1, Day 15, 15 mg (N = 3)): 4.66 (2.19) 10^3/µL
Platelet count, mean (SD) ([2]; Cycle 1, Day 15, 20 mg (N = 6)): 265.2 (79.5) 10^3/µL
Total ANC (absolute neutrophil count), mean (SD) ([2]; Cycle 1, Day 15, 20 mg (N = 6)): 1.49 (0.82) 10^3/µL
White blood cell count, mean (SD) ([2]; Cycle 1, Day 15, 20 mg (N = 6)): 2.82 (1.20) 10^3/µL
Platelet count, mean (SD) ([2]; Cycle 1, Day 15, 25 mg (N = 6)): 184.5 (85.1) 10^3/µL
Total ANC (absolute neutrophil count), mean (SD) ([2]; Cycle 1, Day 15, 25 mg (N = 6)): 0.57 (0.50) 10^3/µL
